Data published in patent US20260069656A1, “Nutritive Polypeptides and Formulations Thereof, and Methods of Production and Use Thereof” (Axcella Health Inc., priority 2013, published 2026).

Tests used:
Zucker fatty rats = test: OGTT in Zucker fatty rats, SEQID-00105 vs alogliptin vs combination (glucose 2 g/kg); format: in vivo, rat
Experimental: In another experiment, an OGTT was performed in 24, fasted, male Zucker fatty rats with indwelling jugular vein catheters (JVC) to assess the acute effects of nutritive protein dosing on glycemic control as well as insulin and GLP-1 levels. The capacity of SEQID-00105 to improve glucose control was tested by comparing the blood glucose excursion of SEQID-00105 to alogliptin to SEQID-00105+alogliptin to vehicle in the context of an oral glucose tolerance test. All rodents were approximately 10-11 weeks old, weighed average of approximately 430 g and acclimated for 4-5 days prior to testing. Prior to treatment, all rats were fasted overnight for fourteen hours. […] N=6 rats per treatment group. The error bars shown are the standard errors of the mean. Each group was compared post hoc on GraphPad Prism 6, two-way ANOVA, Dunnett's multiple comparisons test first comparing within each group to the fasting glucose concentration, followed by a comparison of each time point to vehicle. […] The integrated area under curve (AUC) was calculated on Microsoft Excel using the Linear-Log Trapezoidal Method and two-way ANOVA and Dunnett's multiple comparisons tests was conducted on GraphPad Prism 6.03.

healthy subjects = conditions: oral supplementation vs. control; cited from earlier work
burn injury = conditions: 0.35 g/kg, cited from earlier work
5-HT production = conditions: oral intake of free Tryptophan; cited from earlier work
[1] = system: mTORC1 (phosphorylation of ribosomal protein S6, rps6); test: AlphaScreen SureFire Ribosomal Protein S6 assay in primary rat skeletal muscle cells; format: cell-based
From the text: Primary Rat Skeletal Muscle Cell (RSKMC) culture medium was purchased from Cell Applications (Catalog number: R150-500, San Diego, CA). Starvation medium DMEM/F12 was bought from Sigma (Catalog number: D9785, St. Louis, MO). […] Fetal bovine serum (FBS) and other growth factors were obtained from Cell Applications (Catalog number: R151-GS, San Diego, CA). Tissue culture flasks and clear bottom 96-well tissue culture plates were purchased from Corning Incorporated (Catalog number: 430641 and 353072, respectively, Corning, NY). Trypsin/EDTA was obtained from Life Technology (Catalog number: 25200, Grand Island, NY). DPBS and HBSS were also purchased from Life Technologies (Catalog number: 14190, 14175, respectively). AlphaScreen® SureFire® Ribosomal Protein S6 Assay Kits was obtained from Perkin Elmer (Catalog number: TGRS6P2S10K).
Primary Rat Skeletal Muscle Cell (RSKMC) culture. RSKMC were isolated using protocol described herein and cryopreserved in liquid nitrogen. The cells were also maintained in RSKMC medium (Cell Applications) in T75 tissue flask in a 37° C., 5% CO2 tissue culture incubator (Model 3110, Thermo Fisher Scientific). The cells were split every three day when they reached ˜90% confluency. RSKMC cells were cultured in RSKMC medium in T75 tissue flask to 100% confluency. The culture medium was aspirated from the culture flask and rinsed once with 10 ml of DPBS, and then 1.5 ml of 0.25% trypsin/EDTA was added to the cells. After the cells were detached from the flask, 10 ml of culture medium were added. The medium was pipetted up and down with a 10 ml pipet to detach the cells from the flask. The cells were then seeded into clear bottom 96-well tissue culture plates at a density of 50,000 cells per well. Following overnight culture in a 37° C., 5% CO2 incubator, the cells were starved over a period of 4 hours with starvation DME/F12 medium without FBS and leucine in a 37° C., 5% CO2 tissue culture incubator, then starved for another hour incubation with Hank's Buffered Salt Solution (HBSS). […]

[2] = Intact half-life during simulated gastric fluid (SGF) digestion; conditions: SGF pH 1.5, pepsin:polypeptide 1:20 w/w, 37° C.; produced in E. coli unless otherwise noted
Experimental: Nutritive polypeptide half-life during simulated digestion. One metric for quantifying the breakdown of polypeptides from an intact form to smaller peptides is the intact half-life. In this experiment the nutritive polypeptide was exposed to a series of proteases that are active in the stomach (pepsin) and intestine (trypsin and chymotrypsin), and the presence of intact protein was measured over time. Specifically, the nutritive polypeptide was first treated at a concentration of 2 g/L with simulated gastric fluid (SGF) (0.03 M NaCl, titrated with HCl to pH 1.5 with a final pepsin: polypeptide ratio of 1:20 w/w) at 37° C. Time points were sampled from the reaction and quenched by addition of 0.2 M Na2CO3. […] Time points were sampled from the reaction and quenched by addition of Trypsin/Chymotrypsin Inhibitor (Sigma) solution until 240 min.
Time point samples were analyzed for intact protein by chip electrophoresis, polyacrylamide gel electrophoresis, or western blot. For chip electrophoresis (Labchip GX II), samples were analyzed using a HT Low MW Protein Express LabChip® Kit (following the manufacturer's protocol). A protein ladder was loaded every 12 samples for molecular weight determination (kDa) and quantification. For polyacrylamide gel electrophoresis, samples (1 μg) were separated on a NuPAGE® Novex® Bis-Tris Precast gel (Life Technologies) according to the manufacturer's protocol. The gel was stained using SimplyBlue™ SafeStain (Invitrogen) and imaged using a Chemidoc XRS+ (BioRad) or transferred onto nitrocellulose membranes using the iBlot® Dry Blotting System (Life Technologies) and iBlot® Western Detection Kit (Life Technologies) according to the manufacturer's protocol. Proteins were detected by blotting with Anti-His [C-term]-HRP antibody diluted 3:5000 in Blok™-PO Blocking Buffer using the SNAP i.d.® Protein Detection System (Millipore) according to the manufacturer's protocol. Blots were treated with Luminata Classico Western HRP Substrate (Millipore) according to the manufacturer's protocol and imaged using chemiluminescent detection on the Molecular Imager® Gel Doc™ XR+ System (Bio-Rad). Quantification of intact protein was determined by densitometry using ImageLab (BioRad). For all analysis methods the relative concentration of the polypeptide at each time point (if detected) was plotted overtime and fit to an exponential curve to calculate the intact half-life.
Specifically, the t=0 (enzyme-free control) and t=2 min samples from the SGF digest were analyzed for intact protein as described by chip electrophoresis, SDS-PAGE, western blot, and/or LC-MS/MS. Relative quantities of polypeptides at each time point were determined and the percentage of intact protein remaining at t=2 was determined.

[3] = Thermostability, ProteoStat Thermal Shift Stability Kit, temperature of aggregation; format: physicochemical; conditions: pH 7.1; heated from 25° C. to 95° C.
Experimental: Thermostability. The thermostability of proteins in a buffer cocktail of Citric Acid and Dibasic Sodium Phosphate over a pH range of 2.8 to 7.1 (preparation described above in Table E31B) was determined using the ProteoStat® Thermal Shift Stability Kit (Enzo Life Sciences) according to the manufacturer's standard protocol. Briefly, protein solutions (˜10 mg/ml) containing 1× ProteoStat TS Detection Reagent were heated from 25° C. to 95° C. at a rate of 0.5° C. per 30 sec using a real-time PCR (rtPCR) thermocycler (BioRad) equipped with a plate reader (SynergyMx, Biotek) while monitoring the fluorescence with a Texas Red filter.

Compound: Cn1c(=O)cc(N2CCC[C@@H](N)C2)n(Cc2ccccc2C#N)c1=O [Alogliptin]
- glucose AUC vs vehicle (Zucker fatty rats; 0 to 120 minutes, P=0.0051): significantly less than vehicle
- glucose AUC vs vehicle (Zucker fatty rats; 0 to 240 minutes, P=0.0054): significantly less than vehicle
- blood glucose vs vehicle (Zucker fatty rats; 30 minutes following glucose challenge): significantly lower blood glucose than vehicle
- blood glucose vs vehicle (Zucker fatty rats; 60 minutes following glucose challenge): significantly lower than vehicle

Compound: N=C(N)NCCC[C@H](N)C(=O)O [Arginine]
- increase in collagen deposition at wound sites (healthy subjects): 2.4 ×

Compound: NC(=O)CC[C@H](N)C(=O)O [Glutamine]
- decrease in Lactulose/mannitol ratio (burn injury; after 3 days, vs 5.5× decrease): 8.8 ×
- reduction in hospital stay (burn injury): 6 days

Compound: N[C@@H](Cc1c[nH]c2ccccc12)C(=O)O [Tryptophan]
- increase of 5-HT production (5-HT production): 2 fold

Compound: CC(C)C[C@H](N)C(=O)O [leucine]
- phosphorylation of rps6 ([1]; primary RSkMC, complete amino acid medium and minimal 12 amino acid mixture): stimulates phosphorylation of rps6 in primary RSkMC in a dose-dependent manner
- phosphorylation of rps6 (relative alphascreen signal) ([1]; primary RSkMC, different Leucine concentrations): stimulates phorphorylation of rps6 in primary RSkMC in a dose-dependent manner
- mTOR RPS6 pathway stimulation ([1]; primary cells from Soleus, gastrocnemius and extensor digitorum longus): stimulates mTOR RPS6 pathway using isolated primary cells in a dose dependent manner

Compound: SEQID-00143: nutritive polypeptide (LYLEEVSKNLVEINPLKLEVKAKPWFVYTPMHGVGFDIFSTIVKKTLCLVEGK; listed as Saccharomyces cerevisiae)
- SGF Half-life (t½) [2]: 18 s

Compound: SEQID-00212: nutritive polypeptide (LEEAKKKLLKDVEVLSQRLEEKALAYDKLEKTKTRLQQELDDLLVDLDHQ; listed as Bos taurus)
- SGF Half-life (t½) [2]: 18 s

Compound: SEQID-00215: nutritive polypeptide (KKLLKDVEVLSQRLEEKALAYDKLEKTKTRLQQELDDLLVDLDHQRQIVSNLEKK; listed as Bos taurus)
- SGF Half-life (t½) [2]: 120 s

Compound: SEQID-00218: nutritive polypeptide (GTIENLEEAKKKLLKDVEVLSQRLEEKALAYDKLEKTKTRLQQELDDLLVDLDHQ; listed as Bos taurus)
- SGF Half-life (t½) [2]: 360 s

Compound: SEQID-00237: nutritive polypeptide (EEDKVNTLTKAKTKLEQQVDDLEGSLEQEKKLRMDLERAKRKLEGDLKLA; listed as Bos taurus)
- SGF Half-life (t½) [2]: 36 s
- Tagg (pH 7.1) [3]: 45
